Measured values taken from article PMC6471705, “Evaluation of the Enzyme Inhibitory and Antioxidant Activities of Entada spiralis Stem Bark and Isolation of the Active Constituents” (Molecules, 2019).
In brackets after ≈: the same amount, converted by molar mass. Several values for one entry are separate records, joined by “and”; a condition that tells them apart may be missing. Equal values may be shown once. Read-outs that look alike come from different tables or passages of the source.

Tests used:
[1] = DPPH radical scavenging assay; details: for IC50: Table 3, molar units; for IC50 DPPH Assay: mean ± SEM of triplicate
Experimental: Modified methods from Sulaiman et al. and Ahmed et al. were used. Briefly, 150 µL of freshly prepared DPPH^• solution (0.4 M concentration) was carefully introduced into 96 round microplate wells each. 100 µL of sample/ standard (7.81–500 µg/mL) were added. Blanks contained only methanol and DPPH^•. Ascorbic acid (dissolved in distilled water) and quercetin (dissolved in MeOH) were used as standard. The plate was left in the dark for 25 min to activate. […] Tests were conducted in triplicate and the percentage inhibition of each sample/standard was calculated using the following equation:(1) (% DPPH inhibition)= [Ac−As/Ac] ×100 where, Ac = absorbance of DPPH radical in MeOH, As = absorbance of DPPH radical in sample or standard. IC50 values obtained from graphical plot from percentage inhibition against concentration were used to define the radial scavenging activity of each sample.

[2] = ABTS radical scavenging assay; details: for IC50: Table 3, molar units; for IC50 ABTS Assay: mean ± SEM of triplicate
Experimental: A method reported by Zheleva-Dimitrova et al. was adopted with slight modifications. Stock solutions of ABTS (7 mM) and potassium persulphate (2.45 mM) were prepared using distilled water. The working solution was prepared by adding 1 mL of ABTS solution to same amount of potassium persulphate solution. The reaction mixture was left overnight for 16 h to generate the intensely blue coloured ABTS^•+. 1 mL of ABTS^•+ was then added to 50 mL of MeOH and distributed (100 µL each) into a 96 microplate well containing 100 µL of serially diluted sample/ standard (7.81–125 µg/mL). Absorbance was measured at 734 nm against blank (containing sample and MeOH only). Test was conducted in triplicate. Samples were compared with trolox and ascorbic acid and percentage inhibition was calculated as follows:(2) (% ABTS inhibition)= [Ac−As/Ac] ×100 where, Ac = absorbance of ABTS^• in MeOH, As = absorbance ABTS^•+ in sample/standard.
The radical scavenging activity was determined from the IC50 values obtained from the percentage inhibition curve against different concentrations of the sample/standard.

α-amylase = molecular target: T1, α-amylase (Sus scrofa, UniProt P00690); experiment: In vitro α-amylase inhibitory assay (starch-iodine method); type: biochemical; details: mean ± SEM of triplicate
T1 sequence (P00690 16-511): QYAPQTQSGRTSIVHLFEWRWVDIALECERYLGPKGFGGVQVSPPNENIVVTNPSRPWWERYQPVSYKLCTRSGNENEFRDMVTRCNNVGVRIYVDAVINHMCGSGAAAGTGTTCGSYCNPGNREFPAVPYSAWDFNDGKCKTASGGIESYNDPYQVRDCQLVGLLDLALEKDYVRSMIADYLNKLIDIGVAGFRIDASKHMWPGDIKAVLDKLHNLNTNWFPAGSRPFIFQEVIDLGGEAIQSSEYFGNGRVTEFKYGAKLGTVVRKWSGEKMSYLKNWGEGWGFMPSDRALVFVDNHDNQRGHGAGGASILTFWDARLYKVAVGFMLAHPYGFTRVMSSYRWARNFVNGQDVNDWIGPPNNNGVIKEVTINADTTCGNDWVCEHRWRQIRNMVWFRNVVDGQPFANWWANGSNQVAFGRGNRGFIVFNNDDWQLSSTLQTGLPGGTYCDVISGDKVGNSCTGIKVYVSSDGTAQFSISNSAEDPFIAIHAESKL
Experimental: The procedure proposed by Johnson et al. was adopted and modified for a microplate-based method carried out by Xiao et al.. Briefly, 25 µL of α-amylase solution (1 U/mL in 0.2 M phosphate buffer at pH 7) was introduced into 96 well flat bottom microplates followed by addition of 25 µL of serially diluted sample/standard (7.8–1000 µg/mL) and incubated for 5 min at 37 °C followed by 25 µL of 1% starch in buffer (boiled for 15 min) and re-incubated for 45 min at 50 °C. Next was the addition of 100 µL of 1% iodine solution and 50 µL of distilled water. The microplate was tightly covered during incubation to prevent evaporative loss. […] All determinations including sample, control, and blank were conducted in triplicate under the same reaction conditions. […] Inhibitory activity was determined using the following equation:(3) (% enzyme inhibition)= 1−[Abs/Contr] ×100 where, Abs is the absorbance of the sample or standard. Contr is the absorbance of the control without enzyme.

[3] = Dot-blot staining assay, ABTS reagent; details: 1 mg/mL, compared to ascorbic acid positive control
Experimental: (§1) Rapid detection of the free radical scavenging activity of isolated compounds from active fractions of E. spiralis methanol extract was carried out using a method adapted from Sarian et al.. Three detection agents viz., DPPH^•, ABTS^•+ and β-carotene were used. Briefly, few drops of each compound were spotted on a TLC plate (1.5 × 8 cm) using capillary tube and dried for few minutes at room temperature. The plate was then carefully dipped in 0.5% DPPH^• in methanol for few seconds. The plate was allowed to dry and the colour change was observed. Yellow spots on a purple background indicate radical scavenging activity and intensity of the yellow colour is proportional to the antioxidant activity. A TLC-β-carotene assay was also conducted using 0.05% of β-carotene in chloroform. A few drops of each sample (1 mg/mL) was spotted on TLC plate an allowed to dry after which it was dipped into β-carotene solution for 20 s. The plate was dried completely under direct sunlight for 3 h. Yellow or orange spot on a white background indicates activity. The intensity of the colour is dependent on the extent of antioxidant activity of the compound. TLC ABTS^•+ test was performed by mixing 2.45 mM of potassium persulphate with 7 mM of ABTS and kept in the dark for 16 hours to generate ABTS^•+. Already spotted TLC plates were then dipped into it for 10 s and allowed to dry at room temperature. White or orange spots on a bluish green background indicates activity.

[4] = Dot-blot staining assay, β-carotene; details: 1 mg/mL, compared to ascorbic acid positive control
Experimental: as §1

[5] = Dot-blot staining assay, DPPH reagent; details: 1 mg/mL, compared to ascorbic acid positive control
Experimental: as §1

α-glucosidase [6] = molecular target: α-glucosidase (Saccharomyces cerevisiae, UniProt P53341); experiment: In vitro α-glucosidase inhibitory assay (pNPG substrate); type: biochemical
Experimental: This assay used a method adapted from Johnson et al. with slight modifications employing α-glucosidase (enzyme) obtained from Saccharomyces cerevisiae (1 U/mL) dissolved in 50 mM phosphate buffer (pH 6.9). 100 µL of enzyme (in 0.1M phosphate buffer) was added into 96 microplate well containing 50 µL of sample/ standard 7.8–1000 µg/mL and incubated at 37 °C for 10 min. Next was the addition of 50 µL of the substrate, p-nitrophenyl glucopyranoside (5 mM in 0.1 phosphate buffer at pH 6.9) and re-incubated for 5 min at 37 °C. The reaction was terminated by the addition of 100 µL of 0.1 M Na2CO3 and absorbance was measured at 405 nm.
Experiments were conducted in triplicate.

α-glucosidase [7] = molecular target: α-glucosidase; design: method as in doi:10.1016/j.foodres.2014.01.029; details: isolated from Rhodiola crenulata root; cited from earlier work
human pancreatic amylase = details: cited from earlier work
[8] = Table 3, molar units, read-out: IC50 α-Glucosidase (converted)
[9] = mean ± SEM of triplicate, read-out: IC50 α-Glucosidase (converted)

Sequence of α-glucosidase (Saccharomyces cerevisiae, UniProt P53341) (P53341 whole entry): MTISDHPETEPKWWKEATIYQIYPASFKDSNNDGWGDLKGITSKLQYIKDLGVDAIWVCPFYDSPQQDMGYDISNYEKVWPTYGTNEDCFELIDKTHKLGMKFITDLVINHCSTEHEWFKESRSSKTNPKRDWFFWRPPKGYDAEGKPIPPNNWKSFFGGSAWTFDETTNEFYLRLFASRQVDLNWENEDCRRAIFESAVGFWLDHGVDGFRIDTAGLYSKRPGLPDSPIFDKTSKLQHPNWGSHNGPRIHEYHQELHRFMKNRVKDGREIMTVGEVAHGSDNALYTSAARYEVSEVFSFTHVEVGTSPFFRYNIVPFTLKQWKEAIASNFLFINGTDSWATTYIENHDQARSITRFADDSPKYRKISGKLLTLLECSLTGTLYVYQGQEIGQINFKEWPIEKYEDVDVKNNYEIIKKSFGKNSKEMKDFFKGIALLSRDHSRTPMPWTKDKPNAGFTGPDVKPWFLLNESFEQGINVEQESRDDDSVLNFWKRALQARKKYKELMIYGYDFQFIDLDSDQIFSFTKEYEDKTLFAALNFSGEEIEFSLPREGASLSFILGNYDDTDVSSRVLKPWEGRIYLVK

Molecule | IC50 [1] | IC50 DPPH Assay [1] | IC50 DPPH Assay ([1]; listed as ascorbic acid) | IC50 [2] | IC50 ABTS Assay [2] | IC50 α-Amylase (α-amylase) | Dot-blot spot intensity, ABTS [3] | Dot-blot spot intensity, β-carotene [4] | Dot-blot spot intensity, DPPH [5] | IC50 (α-glucosidase [6]; [8]) | IC50 (α-glucosidase [6]; [9]) | IC50 (α-glucosidase [6]; IC50 α-Glucosidase, Table 3, molar units) | IC50 (α-glucosidase [6]; IC50 α-Glucosidase, mean ± SEM of triplicate) | IC50 (α-glucosidase [6]; read-out: IC50 α-Glucosidase (converted)) | IC50 (α-glucosidase [7]) | Ki (human pancreatic amylase)
O=C1O[C@H]([C@@H](O)CO)C(O)=C1O [Ac, ascorbic acid, reference compound] | 140 µM | 24.67 ± 0.45 ^A µg/mL | 5.38 ± 1.26 µg/mL (≈ 30.5 µM) | 95 µM | 16.74± 1.76 ^A µg/mL | – | – | – | – | – | – | – | – | – | – | –
CCCCCCOC(=O)/C=C/c1ccc(O)c(OC)c1 [FEQ-2, (E)-hexyl 3-(4-hydroxy-3-methoxyphenyl) acrylate] | 50 µM | 13.79 ± 2.13 µg/mL (≈ 49.5 µM) | – | 10 µM | 4.69 ± 1.25 µg/mL (≈ 16.8 µM) | did not show any observable α-amylase inhibition | strong intensity | strong intensity | strong intensity | 530 µM | 535 µM | – | – | – | – | –
O=c1c(O)c(-c2ccc(O)cc2)oc2cc(O)cc(O)c12 [FEQ-3, kaempferol] | 39 µM | 11.29 ± 0.26 µg/mL (≈ 39.4 µM) | – | 7 µM | 2.10 ± 0.51 µg/mL (≈ 7.34 µM) | – | strong intensity | strong intensity | strong intensity | – | – | – | – | – | – | –
COc1cc(O)c2c(=O)c(OC)c(-c3ccc(O)c(OC)c3)oc2c1 [FEQ-4, pachypodol] | 190 µM | 66.17 ± 8.03 µg/mL (≈ 192 µM) | – | 100 µM | – | – | strong intensity | low intensity | low intensity | 220 µM | 219 µM | – | – | – | – | –
O=C(O)c1cc(O)c(O)c(O)c1 [FEQ-5, gallic acid] | 36 µM | 6.15 ± 0.38 µg/mL (≈ 36.2 µM) | – | 7.5 µM | 1.28 ± 0.89 µg/mL (≈ 7.52 µM) | – | strong intensity | strong intensity | strong intensity | – | – | 38 µM | 38.1 µM | – | – | –
Oc1cc(O)c2c(c1)O[C@H](c1ccc(O)c(O)c1)[C@@H](O)C2 [FEQ-7, (+)-catechin] | 43 µM | 12.48 ± 1.55 µg/mL (≈ 43 µM) | – | 6.4 µM | 1.86 ± 0.15 µg/mL (≈ 6.41 µM) | did not show any observable α-amylase inhibition | strong intensity | strong intensity | strong intensity | – | – | – | – | 351 µM and 350 µM | – | –
Oc1cc(O)c2c(c1)O[C@H](c1ccc(O)c(O)c1)[C@H](O)C2 [FEQ-8, (−)-epicatechin] | 40 µM | – | – | 3.9 µM | 1.12 ± 0.09 µg/mL (≈ 3.86 µM) | did not show any observable α-amylase inhibition | strong intensity | strong intensity | strong intensity | 340 µM | 341 µM | – | – | – | 29.9 ± 2.2 µM | –
O=c1c(O)c(-c2ccc(O)c(O)c2)oc2cc(O)cc(O)c12 [Qc, quercetin, reference compound] | 99 µM | 29.82 ± 3.73 ^A µg/mL | – | – | – | – | – | – | – | – | – | – | – | – | – | –
Cc1c(C)c2c(c(C)c1O)CCC(C)(C(=O)O)O2 (stereo not drawn) [Tx, 6-hydroxy-2,5,7,8-tetramethylchroman-2-carboxylic acid, reference compound] | – | – | – | 61 µM | 15.23 ± 2.15 ^A µg/mL | – | – | – | – | – | – | – | – | – | – | –
montbretin A | – | – | – | – | – | – | – | – | – | – | – | – | – | – | – | 0.008 µM
